Publication PMC10107428 (Chemistry (Weinheim an Der Bergstrasse, Germany), 2022)

Biological target: T1, Galectin-8 (Gal8-6FW) (Homo sapiens, UniProt O00214)
T1 sequence (O00214 1-317): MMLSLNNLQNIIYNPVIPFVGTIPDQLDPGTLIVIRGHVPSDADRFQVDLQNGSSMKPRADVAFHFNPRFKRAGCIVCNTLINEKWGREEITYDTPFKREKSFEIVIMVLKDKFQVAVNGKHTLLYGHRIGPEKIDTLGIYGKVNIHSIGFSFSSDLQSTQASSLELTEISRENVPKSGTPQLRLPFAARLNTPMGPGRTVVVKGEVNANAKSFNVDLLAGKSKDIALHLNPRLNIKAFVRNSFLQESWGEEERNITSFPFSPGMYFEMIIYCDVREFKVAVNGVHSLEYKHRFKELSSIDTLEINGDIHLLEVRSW
Experiment: […] NMR titration
Format: binding

OC[C@H]1O[C@@H](O[C@H]2[C@H](O)[C@@H](O)C(O)O[C@@H]2CO)[C@H](O)[C@@H](O)[C@H]1O (stereo partly shown) [lactose]
19F NMR titration: Lactose binds to both domains of Gal8 with very similar and weak affinities
